Test results as given in article PMC7297817, “Pharmacological Characterization of a Betaine/GABA Transporter 1 (BGT1) Inhibitor Displaying an Unusual Biphasic Inhibition Profile and Anti-seizure Effects” (Neurochemical Research, 2020).

What was measured:
D3 = target: T1, D3 (Homo sapiens, UniProt P35462); assay: NIMH PDSP radioligand binding, D3; conditions: radioligand [3H]N-methylspiperone, n=4
T1 construct: purchased NIMH Psychoactive Drug Screening Program (PDSP)

M1 = target: T2, M1 (Homo sapiens, UniProt P11229); assay: NIMH PDSP radioligand binding, M1
T2 construct: purchased NIMH Psychoactive Drug Screening Program (PDSP)

D1 = target: T3, D1 (Homo sapiens, UniProt P21728); assay: NIMH PDSP radioligand binding, D1; conditions: radioligand [3H]SCH23390, n=4
T3 construct: purchased NIMH Psychoactive Drug Screening Program (PDSP)

hBGT1 [1] = target: T4, hBGT1 (Homo sapiens, UniProt P48065); assay: [3H]GABA uptake at hBGT1 stably expressed in CHO cells; format: cell-based
T4 construct: expressed in transfected cells; host or cells: tsA201 (transient)
T4 sequence (P48065 1-614): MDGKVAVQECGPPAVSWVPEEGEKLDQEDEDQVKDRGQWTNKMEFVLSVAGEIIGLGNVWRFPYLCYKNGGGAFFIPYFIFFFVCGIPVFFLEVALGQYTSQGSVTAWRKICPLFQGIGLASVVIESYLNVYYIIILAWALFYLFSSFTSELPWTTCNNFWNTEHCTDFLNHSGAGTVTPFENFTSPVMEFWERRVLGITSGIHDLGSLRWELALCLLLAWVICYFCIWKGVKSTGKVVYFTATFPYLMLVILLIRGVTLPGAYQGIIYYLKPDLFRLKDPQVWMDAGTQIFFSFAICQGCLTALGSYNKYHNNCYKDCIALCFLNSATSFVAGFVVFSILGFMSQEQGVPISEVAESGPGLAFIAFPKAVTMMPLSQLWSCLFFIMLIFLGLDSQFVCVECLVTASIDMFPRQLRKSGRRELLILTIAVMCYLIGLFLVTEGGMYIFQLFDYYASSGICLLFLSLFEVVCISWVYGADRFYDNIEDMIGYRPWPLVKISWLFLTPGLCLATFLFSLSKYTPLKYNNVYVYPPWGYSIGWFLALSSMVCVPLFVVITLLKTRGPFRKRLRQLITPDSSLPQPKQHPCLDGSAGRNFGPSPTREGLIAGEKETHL
Procedure: (§1) The HEK-293 and Flp-In CHO cell lines stably expressing mouse (m) and human (h) GATs, respectively, have been described previously and were cultured accordingly. The tsA201 cell line was used for transient expression while the MDCK II cell line express BGT1 endogenously. Both cell lines were cultured as described. tsA201 cells were transfected with DNA constructs (8 μg per 10 cm dish if not otherwise mentioned) using 40 μL PolyFect transfection reagent according to the manufacturer’s protocol (Qiagen, Venlo, Netherlands). The DNA constructs encoding hBGT1, hGAT1-3 [36], the mutated constructs hBGT1 Q299 and hGAT3 L314Q described previously, and hBGT Y453A were synthesized and sequence validated by Genscript (NJ, USA).
(§2) The [^3H]GABA competition uptake assay was performed as previously described. A minor change, however, was introduced for uptake in MDCK II cells, in which 100 nM [^3H]GABA was used for a 15 min incubation period at 37 °C instead of 30 nM [^3H]GABA and 3 min incubation. Studies related to the inhibition curves with GABA and BPDBA at hBGT1 were obtained both with and without the presence of 10 μM ATP during the [^3H]GABA uptake assay.
(§3) The [^3H]GABA uptake data was normalized to the percentage of total uptake in the individual experiments in the presence of the lowest compound concentration or no compound present. Data presented is the pooled data of at least three independent experiments with three technical replicates. Concentration–response curves (CRCs) were fitted with GraphPad Prism (version 8.2.1, Yosemite, GraphPad Software, San Diego, CA, USA) by non-linear regression to the sigmoidal concentration response model: Y=Bottom+(Top-Bottom)/1+10^LogIC50-X∗nH where Top is the Top plateau, Bottom is the Bottom plateau, X is the logarithm of the concentration of the compound, LogIC50 is the concentration giving a response halfway between Top and Bottom,and nH is the Hill slope.
(§4) The best fit for CRCs obtained with the [^3H]GABA uptake assay was identified by the extra-sum-of-squares F test (for convenience referred to as F test).

hGAT3 L314Q = target: T5, hGAT3 L314Q (Homo sapiens, UniProt P48066, L314Q); assay: [3H]GABA uptake at hGAT3 L314Q mutant transiently expressed in tsA201 cells; format: cell-based; conditions: 30 nM [3H]GABA, 3 min
T5 construct: expressed in transfected cells; host or cells: tsA201 (transient)
Procedure: as §1, §2
The [^3H]GABA uptake data was normalized to the percentage of total uptake in the individual experiments in the presence of the lowest compound concentration or no compound present. […]

M2 = target: T6, M2 (Homo sapiens, UniProt P08172); assay: NIMH PDSP radioligand binding, M2
T6 construct: purchased NIMH Psychoactive Drug Screening Program (PDSP)

hBGT1 [2] = target: T4, hBGT1; assay: [3H]GABA uptake at hBGT1 transiently expressed in tsA201 cells; format: cell-based
Procedure: as §1, with “The” for “The HEK-293 and Flp-In CHO cell lines stably expressing mouse (m) and human (h) GATs, respectively, have been described previously and were cultured accordingly. The”
The [^3H]GABA competition uptake assay was performed as previously described. […] Studies related to the inhibition curves with GABA and BPDBA at hBGT1 were obtained both with and without the presence of 10 μM ATP during the [^3H]GABA uptake assay.
All compounds, except BAPTA/AM, were also present at the same concentration during the course of the actual [^3H]GABA uptake assay.
as §3, §4

5-HT2B = target: T7, 5-HT2B (Homo sapiens, UniProt P41595); assay: NIMH PDSP radioligand binding, 5-HT2B; conditions: radioligand [3H]LSD
T7 construct: NIMH PDSP (screening service)

[3] = 30 min pre-incubation with 25 μM BAPTA/AM
[4] = control: 30 min pre-incubation in assay buffer

T7 sequence (P41595 whole entry, species assumed): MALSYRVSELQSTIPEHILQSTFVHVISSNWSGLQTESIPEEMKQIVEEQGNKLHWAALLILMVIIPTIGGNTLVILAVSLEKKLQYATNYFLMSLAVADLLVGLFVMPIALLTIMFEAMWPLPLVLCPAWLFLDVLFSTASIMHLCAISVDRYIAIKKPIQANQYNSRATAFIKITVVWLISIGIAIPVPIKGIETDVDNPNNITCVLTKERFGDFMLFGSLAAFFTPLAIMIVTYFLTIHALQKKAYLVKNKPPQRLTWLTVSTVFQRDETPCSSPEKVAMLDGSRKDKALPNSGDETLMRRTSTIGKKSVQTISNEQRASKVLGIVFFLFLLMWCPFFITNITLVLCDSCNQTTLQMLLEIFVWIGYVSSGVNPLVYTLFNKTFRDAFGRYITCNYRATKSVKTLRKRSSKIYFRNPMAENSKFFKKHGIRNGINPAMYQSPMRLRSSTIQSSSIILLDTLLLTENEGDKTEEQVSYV
T5 sequence (P48066 whole entry L314Q): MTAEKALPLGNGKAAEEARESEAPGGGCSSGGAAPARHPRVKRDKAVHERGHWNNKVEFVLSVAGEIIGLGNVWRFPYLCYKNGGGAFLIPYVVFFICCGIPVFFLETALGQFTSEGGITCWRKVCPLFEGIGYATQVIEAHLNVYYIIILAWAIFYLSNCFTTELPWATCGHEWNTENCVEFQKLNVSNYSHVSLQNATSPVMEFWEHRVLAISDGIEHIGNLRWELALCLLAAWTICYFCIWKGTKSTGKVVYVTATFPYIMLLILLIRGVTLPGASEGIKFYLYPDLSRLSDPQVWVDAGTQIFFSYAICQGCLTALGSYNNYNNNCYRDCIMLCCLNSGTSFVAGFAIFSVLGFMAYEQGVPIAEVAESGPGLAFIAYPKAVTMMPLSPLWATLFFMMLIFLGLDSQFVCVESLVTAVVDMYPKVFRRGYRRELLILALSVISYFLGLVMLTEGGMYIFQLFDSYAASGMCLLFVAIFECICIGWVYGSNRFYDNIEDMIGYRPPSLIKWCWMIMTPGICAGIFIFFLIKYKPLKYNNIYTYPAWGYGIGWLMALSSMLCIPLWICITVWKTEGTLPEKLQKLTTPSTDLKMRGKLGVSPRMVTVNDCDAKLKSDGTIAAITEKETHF
T6 sequence (P08172 whole entry): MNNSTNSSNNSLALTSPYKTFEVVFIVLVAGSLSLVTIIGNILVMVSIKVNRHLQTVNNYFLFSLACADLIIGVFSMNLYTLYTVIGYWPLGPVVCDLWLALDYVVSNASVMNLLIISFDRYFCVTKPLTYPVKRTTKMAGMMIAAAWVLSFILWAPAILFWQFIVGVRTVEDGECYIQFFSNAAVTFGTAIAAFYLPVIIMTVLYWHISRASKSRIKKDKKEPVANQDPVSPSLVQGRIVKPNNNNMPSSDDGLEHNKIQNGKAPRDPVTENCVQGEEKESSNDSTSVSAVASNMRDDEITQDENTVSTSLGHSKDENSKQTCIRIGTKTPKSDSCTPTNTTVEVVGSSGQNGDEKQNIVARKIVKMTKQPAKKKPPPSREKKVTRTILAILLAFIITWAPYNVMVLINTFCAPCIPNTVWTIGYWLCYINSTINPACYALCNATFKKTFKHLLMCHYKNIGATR
T1 sequence (P35462 whole entry): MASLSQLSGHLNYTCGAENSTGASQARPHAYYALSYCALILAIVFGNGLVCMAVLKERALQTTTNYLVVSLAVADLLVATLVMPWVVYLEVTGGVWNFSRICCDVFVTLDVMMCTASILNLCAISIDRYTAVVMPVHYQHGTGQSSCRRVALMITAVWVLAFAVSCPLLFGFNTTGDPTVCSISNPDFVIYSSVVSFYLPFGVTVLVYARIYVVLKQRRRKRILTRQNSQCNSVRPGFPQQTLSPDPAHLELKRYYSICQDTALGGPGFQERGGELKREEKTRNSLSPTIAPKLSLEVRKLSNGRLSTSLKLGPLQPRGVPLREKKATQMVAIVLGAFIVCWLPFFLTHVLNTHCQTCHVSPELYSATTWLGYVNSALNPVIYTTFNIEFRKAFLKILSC
T3 sequence (P21728 whole entry): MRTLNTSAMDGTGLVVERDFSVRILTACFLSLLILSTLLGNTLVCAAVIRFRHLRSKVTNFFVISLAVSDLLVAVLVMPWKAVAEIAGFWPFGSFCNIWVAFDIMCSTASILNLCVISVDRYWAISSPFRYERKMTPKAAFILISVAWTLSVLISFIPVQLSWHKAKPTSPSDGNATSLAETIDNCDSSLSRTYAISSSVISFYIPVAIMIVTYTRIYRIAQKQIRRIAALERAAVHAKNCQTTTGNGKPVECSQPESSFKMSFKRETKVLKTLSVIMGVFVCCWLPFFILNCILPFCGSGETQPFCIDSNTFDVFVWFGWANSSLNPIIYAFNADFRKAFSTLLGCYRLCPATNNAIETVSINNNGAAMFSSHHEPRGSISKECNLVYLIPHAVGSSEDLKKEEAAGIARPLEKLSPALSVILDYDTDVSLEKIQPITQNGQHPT
T2 sequence (P11229 whole entry): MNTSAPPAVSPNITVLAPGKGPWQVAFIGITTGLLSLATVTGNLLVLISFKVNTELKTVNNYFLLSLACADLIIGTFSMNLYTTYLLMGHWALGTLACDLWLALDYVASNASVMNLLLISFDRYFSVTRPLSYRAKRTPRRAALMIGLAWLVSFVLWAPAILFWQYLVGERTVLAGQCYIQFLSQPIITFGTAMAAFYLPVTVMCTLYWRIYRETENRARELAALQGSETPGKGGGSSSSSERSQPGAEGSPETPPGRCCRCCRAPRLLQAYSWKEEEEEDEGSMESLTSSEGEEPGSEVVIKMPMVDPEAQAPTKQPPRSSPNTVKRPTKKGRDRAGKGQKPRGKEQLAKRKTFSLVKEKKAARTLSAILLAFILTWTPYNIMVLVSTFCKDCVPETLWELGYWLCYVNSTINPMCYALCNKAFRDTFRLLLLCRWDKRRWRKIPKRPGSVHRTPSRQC

SMILES: Cc1ccsc1C(=CCCN(C)[C@H]1CCCC[C@H]1C(=O)O)c1sccc1C [SBV2-114, (1R,2S)-2-((4,4-bis(3-methylthiophen-2-yl)but-3-en-yl)(methyl)amino)cyclohexanecarboxylic acid]
- inhibition at 10 µM (D3): 27.8%
- inhibition at 10 µM (M1): 18.3%
- inhibition at 10 µM (D1): 14%
- IC50 (hBGT1 [1]; IC50, high affinity component, biphasic fit, N=2 of four experiments, CHO): 0.05 µM
- Frac (hBGT1 [1]; biphasic fit, N=2, CHO): 0.10
- IC50 (hBGT1 [1]; pIC50 ± S.E.M., high affinity component, biphasic fit, N=2, CHO): 0.0513 µM
- Fit (hBGT1 [1]; preferred model, N=2): Biphasic
- IC50 (hBGT1 [1]; read-out: IC50, low affinity component, biphasic fit, N=2, CHO): 490 µM
- IC50 (hBGT1 [1]; single IC50, N=2, fit not given, CHO, read-out: IC50): 447 µM
- inhibition profile and activity at hGAT3 L314Q (hGAT3 L314Q): activity in hGAT3 L314Q similar to hBGT1
- inhibition at 10 µM (M2): -1.9%
- inhibition profile (mono-/biphasic) (hBGT1 [2]; 30 nM [3H]GABA, 3 min, F test): biphasic
- Frac (hBGT1 [2]; 2 μg cDNA (n=2)): 0.44
- nH1 (hBGT1 [2]; 2 μg cDNA (n=2)): -0.86
- nH2 (hBGT1 [2]; 2 μg cDNA (n=2)): -1.75
- Frac (hBGT1 [2]; 4 μg cDNA (n=2)): 0.32
- nH1 (hBGT1 [2]; 4 μg cDNA (n=2)): -1.31
- nH2 (hBGT1 [2]; 4 μg cDNA (n=2)): 1.62
- Frac (hBGT1 [2]; [3]): 0.15
- nH1 (hBGT1 [2]; [3]): -2.02
- preferred curve fitting (hBGT1 [2]; 30 min pre-incubation with and presence of 1 μM A 804598): biphasic fit
- preferred curve fitting (hBGT1 [2]; 30 min pre-incubation with and presence of 5 μM U-73122): biphasic fit
- IC50 (hBGT1 [2]; IC50, high affinity component (low IC50), biphasic fit, 30 nM [3H]GABA, 3 min, tsA201, 8 μg cDNA): 4.7 µM
- IC50 (hBGT1 [2]; IC50, high affinity component, 30 min pre-incubation with 25 μM BAPTA/AM): 5.2 µM
- IC50 (hBGT1 [2]; IC50, high affinity component, control: 30 min pre-incubation at 37 °C in assay buffer): 6.1 µM
- % inhibition (Frac value) at the low IC50 (hBGT1 [2]; biphasic fit): 42%
- Frac (hBGT1 [2]; cells pre-incubated for 10 min with SBV2-114 prior to uptake): 0.34
- Frac (hBGT1 [2]; [4]): 0.21
- nH1 (hBGT1 [2]; [4]): -0.76
- nH2 (hBGT1 [2]; [4]): -2.05
- IC50 (hBGT1 [2]; pIC50 ± S.E.M., high affinity component, 2 μg cDNA (n=2), biphasic fit): 3.39 µM
- IC50 (hBGT1 [2]; pIC50 ± S.E.M., high affinity component, 4 μg cDNA (n=2), biphasic fit): 2.19 µM
- IC50 (hBGT1 [2]; pIC50 ± S.E.M., high affinity component, biphasic fit, 30 nM [3H]GABA, 3 min, tsA201, 8 μg cDNA): 5.25 µM
- Frac (hBGT1 [2]; proportion of maximal response due to the more potent phase, 8 μg cDNA): 0.42
- IC50 (hBGT1 [2]; read-out: IC50, low affinity component (high IC50), biphasic fit, 30 nM [3H]GABA, 3 min, tsA201, 8 μg cDNA): 556 µM
- IC50 (hBGT1 [2]; read-out: IC50, low affinity component, 2 μg cDNA (n=2), biphasic fit): 518 µM
- IC50 (hBGT1 [2]; read-out: IC50, low affinity component, 4 μg cDNA (n=2), biphasic fit): 514 µM
- IC50 (hBGT1 [2]; read-out: IC50, low affinity component, 30 min pre-incubation with 25 μM BAPTA/AM): 513 µM
- IC50 (hBGT1 [2]; read-out: IC50, low affinity component, control: 30 min pre-incubation at 37 °C in assay buffer): 507 µM
- inhibition at 10 µM (5-HT2B; 10 μM, n=4): 96.8%
- Ki (5-HT2B; full curve): 0.42 µM
